# ChEMBL document CHEMBL1201862, “PubChem BioAssay data set” (2004)
#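 Five concentrations, 48 hours, 96-well plates. GI50 marks 50% less growth.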 Active and inactive are the calls of the source. Cut-off read from the data, not from the text of the source: active = GI50 up to about 1.1 µM and inactive = higher.
# What was measured:
# Assay in all cases: NCI-60 cell line screen, 48 h
# [1] = system: 786-0
# [2] = system: A498
# [3] = system: A549
# [4] = system: ACHN
# [5] = system: BT-549
# [6] = system: CAKI-1
# [7] = system: CCRF-CEM
# [8] = system: COLO 205
# [9] = system: DU-145
# [10] = system: EKVX
# [11] = system: HCC 2998
# [12] = system: HCT-116
# [13] = system: HCT-15
# [14] = system: HL-60
# [15] = system: HOP-62
# [16] = system: HOP-92
# [17] = system: HT-29
# [18] = system: Hs-578T
# [19] = system: IGROV-1
# [20] = system: K562
# [21] = system: LOX IMVI
# [22] = system: M14
# [23] = system: MCF7
# [24] = system: MDA-MB-231
# [25] = system: MDA-MB-435
# [26] = system: MDA-N
# [27] = system: MOLT-4
# [28] = system: Malme-3M
# [29] = system: NCI-H226
# [30] = system: NCI-H23
# [31] = system: NCI-H460
# [32] = system: NCI-H522
# [33] = system: OVCAR-3
# [34] = system: OVCAR-4
# [35] = system: OVCAR-5
# [36] = system: PC-3
# [37] = system: RPMI-8226
# [38] = system: RXF 393
# [39] = system: SF-268
# [40] = system: SF-295
# [41] = system: SF-539
# [42] = system: SK-MEL-28
# [43] = system: SK-MEL-2
# [44] = system: SK-MEL-5
# [45] = system: SK-OV-3
# [46] = system: SN12C
# [47] = system: SNB-19
# [48] = system: SR
# [49] = system: SW-620
# [50] = system: T47D
# [51] = system: TK-10
# [52] = system: U-251
# [53] = system: UACC-257
# [54] = system: UACC-62
# [55] = system: UO-31
# [56] = system: KM12
# [57] = system: NCI/ADR-RES
# [58] = system: OVCAR-8
# [59] = system: SNB-75
compound,measurement,setting,value
CNc1ncnc2c1cnn2CCCCO,GI50,[1],> 100 µM (inactive)
same,GI50,[2],> 100 µM (inactive)
same,GI50,[3],> 100 µM (inactive)
same,GI50,[4],> 100 µM (inactive)
same,GI50,[5],> 100 µM (inactive)
same,GI50,[6],> 100 µM (inactive)
same,GI50,[7],> 100 µM (inactive)
same,GI50,[8],> 100 µM (inactive)
same,GI50,[9],> 100 µM (inactive)
same,GI50,[10],> 100 µM (inactive)
same,GI50,[11],> 100 µM (inactive)
same,GI50,[12],> 100 µM (inactive)
same,GI50,[13],> 100 µM
same,GI50,[14],> 100 µM (inactive)
same,GI50,[15],> 100 µM (inactive)
same,GI50,[16],> 100 µM (inactive)
same,GI50,[17],> 100 µM (inactive)
same,GI50,[18],> 100 µM (inactive)
same,GI50,[19],> 100 µM (inactive)
same,GI50,[20],> 100 µM (inactive)
same,GI50,[21],> 100 µM (inactive)
same,GI50,[22],> 100 µM (inactive)
same,GI50,[23],> 100 µM (inactive)
same,GI50,[24],> 100 µM (inactive)
same,GI50,[25],> 100 µM (inactive)
same,GI50,[26],> 100 µM (inactive)
same,GI50,[27],> 100 µM (inactive)
same,GI50,[28],> 100 µM (inactive)
same,GI50,[29],> 100 µM (inactive)
same,GI50,[30],> 100 µM (inactive)
same,GI50,[31],> 100 µM (inactive)
same,GI50,[32],> 100 µM (inactive)
same,GI50,[33],> 100 µM (inactive)
same,GI50,[34],> 100 µM (inactive)
same,GI50,[35],> 100 µM (inactive)
same,GI50,[36],> 100 µM (inactive)
same,GI50,[37],> 100 µM (inactive)
same,GI50,[38],> 100 µM (inactive)
same,GI50,[39],> 100 µM (inactive)
same,GI50,[40],> 100 µM (inactive)
same,GI50,[41],> 100 µM (inactive)
same,GI50,[42],> 100 µM (inactive)
same,GI50,[43],> 100 µM (inactive)
same,GI50,[44],> 100 µM (inactive)
same,GI50,[45],> 100 µM (inactive)
same,GI50,[46],> 100 µM (inactive)
same,GI50,[47],> 100 µM (inactive)
same,GI50,[48],> 100 µM (inactive)
same,GI50,[49],> 100 µM (inactive)
same,GI50,[50],> 100 µM (inactive)
same,GI50,[51],> 100 µM (inactive)
same,GI50,[52],> 100 µM (inactive)
same,GI50,[53],> 100 µM (inactive)
same,GI50,[54],> 100 µM (inactive)
same,GI50,[55],> 100 µM (inactive)
C1CC2=C(C1)[Se]C(=C1Sc3nsnc3S1)[Se]2,GI50,[1],> 100 µM (inactive)
same,GI50,[3],> 100 µM (inactive)
same,GI50,[4],> 100 µM (inactive)
same,GI50,[5],> 100 µM (inactive)
same,GI50,[6],> 100 µM (inactive)
same,GI50,[7],> 100 µM (inactive)
same,GI50,[8],> 100 µM (inactive)
same,GI50,[9],> 100 µM (inactive)
same,GI50,[10],> 100 µM (inactive)
same,GI50,[11],> 100 µM (inactive)
same,GI50,[12],> 100 µM (inactive)
same,GI50,[13],48.3 µM
same,GI50,[15],> 100 µM (inactive)
same,GI50,[16],> 100 µM (inactive)
same,GI50,[17],> 100 µM (inactive)
same,GI50,[18],> 100 µM (inactive)
same,GI50,[19],> 100 µM (inactive)
same,GI50,[56],> 100 µM (inactive)
same,GI50,[21],> 100 µM (inactive)
same,GI50,[22],> 100 µM (inactive)
same,GI50,[23],> 100 µM (inactive)
same,GI50,[24],> 100 µM (inactive)
same,GI50,[25],39 µM (inactive)
same,GI50,[26],21.7 µM (inactive)
same,GI50,[27],> 100 µM (inactive)
same,GI50,[28],71.3 µM (inactive)
same,GI50,[29],> 100 µM (inactive)
same,GI50,[30],> 100 µM (inactive)
same,GI50,[31],> 100 µM (inactive)
same,GI50,[32],> 100 µM (inactive)
same,GI50,[57],> 100 µM (inactive)
same,GI50,[33],> 100 µM (inactive)
same,GI50,[34],> 100 µM (inactive)
same,GI50,[35],> 100 µM (inactive)
same,GI50,[58],> 100 µM (inactive)
same,GI50,[36],> 100 µM (inactive)
same,GI50,[37],> 100 µM (inactive)
same,GI50,[39],> 100 µM (inactive)
same,GI50,[40],> 100 µM (inactive)
same,GI50,[41],> 100 µM (inactive)
same,GI50,[42],> 100 µM (inactive)
same,GI50,[43],> 100 µM (inactive)
same,GI50,[44],> 100 µM (inactive)
same,GI50,[45],> 100 µM (inactive)
same,GI50,[46],> 100 µM (inactive)
same,GI50,[47],> 100 µM (inactive)
same,GI50,[59],> 100 µM (inactive)
same,GI50,[49],> 100 µM (inactive)
same,GI50,[50],> 100 µM (inactive)
same,GI50,[51],> 100 µM (inactive)
same,GI50,[52],> 100 µM (inactive)
same,GI50,[53],> 100 µM (inactive)
same,GI50,[54],> 100 µM (inactive)
same,GI50,[55],> 100 µM (inactive)
CCc1n[nH]c(=O)n1/N=C/c1ccc(/C=N/n2c(CC)n[nH]c2=O)cc1,GI50,[1],> 100 µM (inactive)
same,GI50,[2],> 100 µM (inactive)
same,GI50,[3],> 100 µM (inactive)
same,GI50,[4],> 100 µM (inactive)
same,GI50,[5],> 100 µM (inactive)
same,GI50,[6],> 100 µM (inactive)
same,GI50,[7],> 100 µM (inactive)
same,GI50,[8],> 100 µM (inactive)
same,GI50,[9],> 100 µM (inactive)
same,GI50,[10],> 100 µM (inactive)
same,GI50,[12],> 100 µM (inactive)
same,GI50,[13],> 100 µM
same,GI50,[14],> 100 µM (inactive)
same,GI50,[15],> 100 µM (inactive)
same,GI50,[17],> 100 µM (inactive)
same,GI50,[18],> 100 µM (inactive)
same,GI50,[19],> 100 µM (inactive)
same,GI50,[20],> 100 µM (inactive)
same,GI50,[56],> 100 µM (inactive)
same,GI50,[21],> 100 µM (inactive)
same,GI50,[22],> 100 µM (inactive)
same,GI50,[23],> 100 µM (inactive)
same,GI50,[24],> 100 µM (inactive)
same,GI50,[25],> 100 µM (inactive)
same,GI50,[26],> 100 µM (inactive)
same,GI50,[27],> 100 µM (inactive)
same,GI50,[28],> 100 µM (inactive)
same,GI50,[29],> 100 µM (inactive)
same,GI50,[30],> 100 µM (inactive)
same,GI50,[31],> 100 µM (inactive)
same,GI50,[32],> 100 µM (inactive)
same,GI50,[57],> 100 µM (inactive)
same,GI50,[33],> 100 µM (inactive)
same,GI50,[34],> 100 µM (inactive)
same,GI50,[35],> 100 µM (inactive)
same,GI50,[58],> 100 µM (inactive)
same,GI50,[36],> 100 µM (inactive)
same,GI50,[37],> 100 µM (inactive)
same,GI50,[38],> 100 µM (inactive)
same,GI50,[39],> 100 µM (inactive)
same,GI50,[40],> 100 µM (inactive)
same,GI50,[42],> 100 µM (inactive)
same,GI50,[43],> 100 µM (inactive)
same,GI50,[44],> 100 µM (inactive)
same,GI50,[46],> 100 µM (inactive)
same,GI50,[47],> 100 µM (inactive)
same,GI50,[49],> 100 µM (inactive)
same,GI50,[50],> 100 µM (inactive)
same,GI50,[51],> 100 µM (inactive)
same,GI50,[52],> 100 µM (inactive)
same,GI50,[53],> 100 µM (inactive)
same,GI50,[54],> 100 µM (inactive)
same,GI50,[55],> 100 µM (inactive)
